ChEMBL document CHEMBL1201862, “PubChem BioAssay data set” (2004)
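Results reflect a 48-hour exposure of cells in 96-well plates to compound at five concentrations. The concentration for 50% growth inhibition is given as GI50.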 Calls of active or inactive are those of the source. Rule as the data show it: active = GI50 up to about 1.1 µM and inactive = higher.

Columns and labels:
Assay in all cases: growth of human tumour cells (NCI), 48 h
DMS-114 = tested on: DMS-114
HCT-116 = tested on: HCT-116
KM12 = tested on: KM12
TK-10 = tested on: TK-10
OVCAR-8 = tested on: OVCAR-8
LXFL 529 = tested on: LXFL 529
SF-539 = tested on: SF-539
HOP-92 = tested on: HOP-92
SF-268 = tested on: SF-268
DMS-273 = tested on: DMS-273
OVCAR-4 = tested on: OVCAR-4
SK-MEL-2 = tested on: SK-MEL-2
SNB-19 = tested on: SNB-19
HL-60 = tested on: HL-60
RXF 393 = tested on: RXF 393
UACC-257 = tested on: UACC-257
ACHN = tested on: ACHN
LOX IMVI = tested on: LOX IMVI
HOP-62 = tested on: HOP-62
HOP-18 = tested on: HOP-18
HT-29 = tested on: HT-29
KM-20L2 = tested on: KM-20L2
NCI-H226 = tested on: NCI-H226
SN12C = tested on: SN12C
OVCAR-3 = tested on: OVCAR-3
K562 = tested on: K562
DLD-1 = tested on: DLD-1
CAKI-1 = tested on: CAKI-1
XF498 = tested on: XF498
OVCAR-5 = tested on: OVCAR-5
786-0 = tested on: 786-0
SNB-75 = tested on: SNB-75
CCRF-CEM = tested on: CCRF-CEM
SK-MEL-5 = tested on: SK-MEL-5
UO-31 = tested on: UO-31
U-251 = tested on: U-251
SK-OV-3 = tested on: SK-OV-3
MOLT-4 = tested on: MOLT-4
Malme-3M = tested on: Malme-3M
SF-295 = tested on: SF-295
M14 = tested on: M14
RPMI-8226 = tested on: RPMI-8226
IGROV-1 = tested on: IGROV-1
HCT-15 = tested on: HCT-15
UACC-62 = tested on: UACC-62
A498 = tested on: A498
NCI-H522 = tested on: NCI-H522
NCI-H23 = tested on: NCI-H23
NCI-H460 = tested on: NCI-H460
COLO 205 = tested on: COLO 205
EKVX = tested on: EKVX
A549 = tested on: A549
M19-MEL = tested on: M19-MEL
SK-MEL-28 = tested on: SK-MEL-28
SW-620 = tested on: SW-620
SNB-78 = tested on: SNB-78
SR = tested on: SR

CCCc1ccc(/N=C\c2cc(OC)c(OC)c(OC)c2)cc1
GI50 (DMS-114): 18.7 µM (inactive)
GI50 (HCT-116): > 63.4 µM (inactive)
GI50 (KM12): > 100 µM (inactive)
GI50 (TK-10): > 100 µM (inactive)
GI50 (OVCAR-8): > 100 µM (inactive)
GI50 (LXFL 529): 99.3 µM (inactive)
GI50 (SF-539): > 100 µM (inactive)
GI50 (HOP-92): > 51.3 µM (inactive)
GI50 (SF-268): > 100 µM (inactive)
GI50 (DMS-273): > 83.4 µM (inactive)
GI50 (OVCAR-4): > 100 µM (inactive)
GI50 (SK-MEL-2): > 100 µM (inactive)
GI50 (SNB-19): > 100 µM (inactive)
GI50 (HL-60): 21.5 µM (inactive)
GI50 (RXF 393): > 100 µM (inactive)
GI50 (UACC-257): > 100 µM (inactive)
GI50 (ACHN): > 100 µM (inactive)
GI50 (LOX IMVI): > 52.1 µM (inactive)
GI50 (HOP-62): > 100 µM (inactive)
GI50 (HOP-18): > 100 µM (inactive)
GI50 (HT-29): > 87.7 µM (inactive)
GI50 (KM-20L2): > 100 µM (inactive)
GI50 (NCI-H226): > 100 µM (inactive)
GI50 (SN12C): > 100 µM (inactive)
GI50 (OVCAR-3): > 100 µM (inactive)
GI50 (K562): 36 µM (inactive)
GI50 (DLD-1): > 75.9 µM (inactive)
GI50 (CAKI-1): > 100 µM (inactive)
GI50 (XF498): > 100 µM (inactive)
GI50 (OVCAR-5): > 100 µM (inactive)
GI50 (786-0): > 100 µM (inactive)
GI50 (SNB-75): > 100 µM (inactive)
GI50 (CCRF-CEM): 26.6 µM (inactive)
GI50 (SK-MEL-5): > 100 µM (inactive)
GI50 (UO-31): > 100 µM (inactive)
GI50 (U-251): > 100 µM (inactive)
GI50 (SK-OV-3): > 100 µM (inactive)
GI50 (MOLT-4): > 100 µM (inactive)
GI50 (Malme-3M): > 100 µM (inactive)
GI50 (SF-295): > 100 µM (inactive)
GI50 (M14): > 100 µM (inactive)
GI50 (RPMI-8226): 24.4 µM (inactive)
GI50 (IGROV-1): > 100 µM (inactive)
GI50 (HCT-15): > 39.9 µM
GI50 (UACC-62): > 100 µM (inactive)
GI50 (A498): > 100 µM (inactive)
GI50 (NCI-H522): > 59.2 µM (inactive)
GI50 (NCI-H23): > 100 µM (inactive)
GI50 (NCI-H460): > 100 µM (inactive)
GI50 (COLO 205): > 31.6 µM (inactive)
GI50 (EKVX): > 100 µM (inactive)
GI50 (A549): > 100 µM (inactive)
GI50 (M19-MEL): > 100 µM (inactive)
GI50 (SK-MEL-28): > 100 µM (inactive)
GI50 (SW-620): > 100 µM (inactive)
GI50 (SNB-78): > 100 µM (inactive)
GI50 (SR): 55.5 µM (inactive)
